Data published in article PMC10804683, “Identification of the pyridoxal 5′‐phosphate allosteric site in human pyridox(am)ine 5′‐phosphate oxidase” (Protein Science : A Publication of the Protein Society, 2024).
Numbering of substitutions follows the chain as printed. Entries after “also recorded” stand apart in the source; their conditions may differ.

How the values were obtained:
[1] = biological target: T1, apo-PNPO F48A/E50L/R258L (Homo sapiens, UniProt Q9NVS9, E50L/F48A/R258L); test: PLP binding by intrinsic fluorescence, apo triple variant; details: excitation 280 nm, 100 nM enzyme
T1 construct: a main form corresponding to the entire protein; made in house; host or cells: E. coli BL21(DE3)
T1 sequence (Q9NVS9 1-261 F48A/E50L/R258L): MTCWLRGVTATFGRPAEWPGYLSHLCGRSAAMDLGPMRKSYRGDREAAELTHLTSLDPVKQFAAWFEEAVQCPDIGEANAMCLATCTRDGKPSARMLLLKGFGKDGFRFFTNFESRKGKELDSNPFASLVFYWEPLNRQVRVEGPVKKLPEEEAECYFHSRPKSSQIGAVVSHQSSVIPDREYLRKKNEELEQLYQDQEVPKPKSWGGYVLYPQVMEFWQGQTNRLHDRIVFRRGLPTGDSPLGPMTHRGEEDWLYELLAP
Description: PLP binding to PNPO can be detected and quantitatively measured using differential scanning fluorimetry (DSF) and also by measuring FMN fluorescence changes. We had previously attributed DSF changes to PLP binding at the active site, while FMN fluorescence changes were attributed to PLP binding at the allosteric site (Barile et al., [2019], [2020]). Previous experiments carried out with the PNPO R161C variant, affecting a residue that is essential for substrate binding and catalysis (and therefore also for PLP binding at the active site), confirms that DSF measurements only report PLP binding at the active site (Barile et al., [2021]; Table 1). […] We expected to observe no FMN fluorescence changes upon titration of the variants with PLP. However, this was not the case, and the dissociation constant values obtained by observing the FMN fluorescence emission were only up to threefold larger in the variants with respect to wild type PNPO (Figure 3). […] To check the second possibility, we measured intrinsic fluorescence changes of wild type and variant apo‐forms (i.e., without FMN) upon PLP titration. […]
Analyses of PLP binding, based on FMN fluorescence increase observed upon binding of PLP to PNPO, were performed as described in Barile et al. ([2020]). […] Emission spectra were recorded from […], with excitation and emission slits set at 3 and 5 nm, respectively. […]

[2] = biological target: T2, human PNPO wild type (Homo sapiens, UniProt Q9NVS9); test: PLP inhibition kinetics of PNP oxidation, wild type; type: biochemical; set-up: a main form corresponding to the entire protein; made in house; host or cells: E. coli BL21(DE3); details: Na-HEPES pH 7.6, 2 μM enzyme, PLP 0–16 μM
T2 sequence (Q9NVS9 1-261): T1 sequence (Q9NVS9 1-261 F48A/E50L/R258L) with A48F, L50E, L258R
Method: This is a general inhibition mechanism that takes into account the possibility of PLP binding to both the active and allosteric sites. PLP binding at the active site gives a complete, competitive inhibition, whereas PLP binding at the allosteric site yields a substrate‐enzyme‐PLP ternary complex that is still catalytically active, although k CAT is reduced by a coefficient whose value is around 0.15. A thorough inhibition kinetic characterization was carried out with the wild type, F48A, F48A/E50L/R258L, and F48A/E50L/H248N/R258L PNPO forms, so as to evaluate the effect of the variations on the allosteric properties of the enzyme. The initial velocity of PNP conversion into PLP was measured in Na‐HEPES buffer (in which PLP is allowed to accumulate) by varying substrate concentration at different, fixed exogenous PLP concentrations, using 2 μM enzyme. A series of saturation curves were obtained that were used to fit the Michaelis–Menten equation (Figure 5), acquiring apparent V MAX and K M values as a function of PLP concentration. […]
FIGURE 5 Characterization of PLP inhibition. Upper panels: The initial velocity of the reaction was measured with 2 μM wild type (a), and the F48A (b), F48A/E50L/R258L (c), and F48A/E50L/H248N/R258L (d) PNPO variants, varying PNP concentration while keeping exogenous PLP fixed at different concentrations (0, 0.25, 0.5, 1, 2, 4, 8, and 16 μM). […]

Cc1ncc(COP(=O)(O)O)c(C=O)c1O [PLP, pyridoxal 5′‐phosphate]
Apo-enzyme PLP binding KD^FLUO [1]: no change in fluorescence was observed; also recorded: No binding | type of inhibition of PNP oxidation by PLP [2]: typical hyperbolic increase of 1/V MAX and the parabolic increase of K M/V MAX
